From patent publication US20230131111A1, “BIODEGRADABLE POLYIMIDAZOLIUMS AND OLIGOIMIDAZOLIUMS” (Nanyang Technological University, priority 2020, published 2023) come the findings set out here.

One test deals with E. coli (EC). Nature of the test: MIC broth microdilution. Type of test: cell-based, Escherichia coli. (In broth dilution the organism is exposed to a series of concentrations in liquid medium.)
For a further test, the system named is S. aureus (SA). Nature of the test: MIC broth microdilution. In kind it is cell-based, Staphylococcus aureus.
Another test deals with MRSA BAA39. As to the kind of experiment: MIC broth microdilution. In kind it is cell-based, Staphylococcus aureus.
The test system of another test is 3T3 cells. As to the kind of experiment: Mammalian cell cytotoxicity, MTT. Type of test: cell-based, Mouse. Particulars: mouse embryonic fibroblast 3T3 cells, MTT.
A further test relates to P. aeruginosa PAO1. Nature of the test: MIC90 broth microdilution. In kind it is cell-based, Pseudomonas aeruginosa.
Another test deals with MRSA BAA39 biofilm. As to the kind of experiment: MBEC antibiofilm assay. The following applies: 4 h treatment.
The subject of the next test is P. aeruginosa O1 biofilm. As to the kind of experiment: MBEC antibiofilm assay. The following applies: 4 h treatment.

Experimental for MRSA BAA39 biofilm: (§1) The MBEC was measured using micro-titre plate-based technology. Briefly, 160 μL of MRSA BAA39 or P. aeruginosa O1 suspension (cell density at ˜10^7 CFU/mL) was added into the 96-well growth plate covered by a lid containing MBEC pegs. Biofilm were grown on the peg lid after incubation at 37° C. for 24-48 h. After removing planktonic bacteria by washing with PBS twice, the lid with biofilm were transferred into the challenge plate which contained two-fold serial dilutions of one of P1-P6 solution, with total volume of 200 μL in each well. The treatment was performed at room temperature for 4 h. After that, the peg lid was washed again with PBS and transferred to a recovery plate which contained PBS (200 μL) in each well. Biofilm bacteria that survived were dislodged from the peg lid by sonication for 30±5 min, and detached bacteria were then 10-fold serial-diluted in sterile PBS and spread on agar plates. After incubation at 37° C. for 24 h, the colonies were counted.
Experimental for P. aeruginosa O1 biofilm: as §1

One may read the IC50 as the midpoint of a concentration-inhibition curve. High values mean lower potency, low ones higher potency. In the case of Benzalkonium chloride [C3], in the test on E. coli (EC), the “MIC EC” value is 16 µg/mL. Further, the “MIC SA” value against S. aureus (SA) was 1 to 2 µg/mL. Also, in the test with MRSA BAA39, the “MIC MRSA BAA39” value was determined as 1 µg/mL. In the test with 3T3 cells, this substance showed a concentration for half-maximal inhibition (IC50) of 10 µg/mL. Moreover, the “MIC PAO1” value in the test with P. aeruginosa PAO1 worked out at 128 µg/mL. In the test on MRSA BAA39 biofilm, the antibiofilm efficacy rank entry is on record as “P(ImC8)>P(ImC8-co-ImC8D)-50%˜P(ImC6)>BAC”. Besides, the antibiofilm potency order result in the test with P. aeruginosa O1 biofilm is on record as “P(ImC8)>P(ImC8-co-ImC8D)-50%>P(ImC6)>BAC”.
